“And” between values parts separate entries of the source, which are not always exact repeats. Equal values may be shown once. Toxic doses and inconclusive results are not listed.
Test system: P388 leukemia ip, CD2F1 mice, survival T/C
Test: NCI In Vivo Anticancer Drug Screen. Data for tumor model P388 Leukemia (intraperitoneal) in CD2F1 (CDF1) mice
Conditions: endpoint: median survival time, higher = longer survival
Procedure, shortened: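 Mice carrying the transplanted tumor received test compound or vehicle. Survival was recorded in each group, and the value is the treated-group measurement divided by that of the vehicle-treated control group.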

[1] = dose: 6.25 mg/kg/injection, schedule: Q01DX009 (ip), vehicle: saline with Tween-80
[2] = dose: 50.0 mg/kg/injection, schedule: Q01DX009 (ip), vehicle: saline
[3] = dose: 100.0 mg/kg/injection, schedule: Q01DX009 (ip), vehicle: saline
[4] = dose: 200.0 mg/kg/injection, schedule: Q01DX009 (ip), vehicle: saline
[5] = dose: 50.0 mg/kg/injection, schedule: Q01DX005 (ip), vehicle: Klucel (hydroxypropylcellulose) (HPC)
[6] = dose: 100.0 mg/kg/injection, schedule: Q01DX005 (ip), vehicle: Klucel (hydroxypropylcellulose) (HPC)
[7] = dose: 50.0 mg/kg/injection, schedule: Q01DX005 (ip), vehicle: saline with Tween-80
[8] = dose: 60.0 mg/kg/injection, schedule: Q01DX005 (ip), vehicle: Klucel (hydroxypropylcellulose) (HPC)
[9] = dose: 120.0 mg/kg/injection, schedule: Q01DX005 (ip), vehicle: Klucel (hydroxypropylcellulose) (HPC)
[10] = dose: 240.0 mg/kg/injection, schedule: Q01DX005 (ip), vehicle: Klucel (hydroxypropylcellulose) (HPC)

## N=C(N)c1ccc(-c2ccc(-c3ccc(C(=N)N)cc3)o2)cc1
dose: 3.13 mg/kg/injection, schedule: Q01DX009 (ip), vehicle: saline with Tween-80
  T/C: 94 % of control
[1]
  T/C: 102 % of control

## CC(Nc1cccc(Cl)c1)S(=O)(=O)O (configuration not stated)
[2]
  T/C: 100 % of control
[3]
  T/C: 100 % of control
[4]
  T/C: 94 % of control

## COC(=O)n1sc(SC)nc1=N
dose: 12.5 mg/kg/injection, schedule: Q01DX005 (ip), vehicle: Klucel (hydroxypropylcellulose) (HPC)
  T/C: 88 % of control
dose: 25.0 mg/kg/injection, schedule: Q01DX005 (ip), vehicle: Klucel (hydroxypropylcellulose) (HPC)
  T/C: 114 % of control
[5]
  T/C: 100 % of control and 114 % of control

## CCN(CCCO)CCCO
[2]
  T/C: 102 % of control
[3]
  T/C: 93 % of control
[4]
  T/C: 95 % of control

## O=C1/C(=C/c2ccccc2)CSC/C1=C\c1ccccc1
[5]
  T/C: 91 % of control
[6]
  T/C: 86 % of control

## CCN(CC)CC(=O)Nc1ccc2c(c1)C(=O)c1ccc(NC(=O)CN(CC)CC)cc1C2=O
[5]
  T/C: 90 % of control
dose: 50.0 mg/kg/injection, schedule: Q01DX005 (ip), vehicle: acid diluted with saline
  T/C: 100 % of control
[6]
  T/C: 93 % of control
dose: 100.0 mg/kg/injection, schedule: Q01DX005 (ip), vehicle: acid diluted with saline
  T/C: 103 % of control
dose: 200.0 mg/kg/injection, schedule: Q01DX005 (ip), vehicle: Klucel (hydroxypropylcellulose) (HPC)
  T/C: 90 % of control
dose: 200.0 mg/kg/injection, schedule: Q01DX005 (ip), vehicle: acid diluted with saline
  T/C: 106 % of control

## N#Cc1[nH]cnc1O
[7]
  T/C: 103 % of control
dose: 100.0 mg/kg/injection, schedule: Q01DX005 (ip), vehicle: saline with Tween-80
  T/C: 101 % of control
dose: 200.0 mg/kg/injection, schedule: Q01DX005 (ip), vehicle: saline with Tween-80
  T/C: 112 % of control

## CCCC(NC)C(CC)CN (configuration not stated)
dose: 50.0 mg/kg/injection, schedule: Q01DX009 (ip), vehicle: saline with Tween-80
  T/C: 95 % of control
dose: 100.0 mg/kg/injection, schedule: Q01DX009 (ip), vehicle: saline with Tween-80
  T/C: 100 % of control

## O=C[C@@H](CO)O[C@H](C=O)c1c[nH]c(=O)[nH]c1=O
dose: 5.0 mg/kg/injection, schedule: Q01DX005 (ip), vehicle: saline
  T/C: 118 % of control
dose: 12.5 mg/kg/injection, schedule: Q01DX005 (ip), vehicle: saline
  T/C: 155 % of control
dose: 12.5 mg/kg/injection, schedule: Q04DX003 (ip), vehicle: saline
  T/C: 124 % of control
dose: 25.0 mg/kg/injection, schedule: Q01DX005 (ip), vehicle: saline
  T/C: 156 % of control and 158 % of control
dose: 40.0 mg/kg/injection, schedule: Q01DX005 (ip), vehicle: saline
  T/C: 155 % of control
dose: 50.0 mg/kg/injection, schedule: Q01DX005 (ip), vehicle: saline
  T/C: 173 % of control and 190 % of control
dose: 80.0 mg/kg/injection, schedule: Q01DX005 (ip), vehicle: saline
  T/C: 186 % of control and 245 % of control
dose: 100.0 mg/kg/injection, schedule: Q04DX003 (ip), vehicle: saline
  T/C: 185 % of control

## CCCCNC(=O)OCCN(CCOC(=O)NCCCC)C(=O)N1c2ccccc2Sc2ccccc21
dose: 50.0 mg/kg/injection, schedule: Q04DX003 (ip), vehicle: saline with Tween-80
  T/C: 98 % of control
dose: 100.0 mg/kg/injection, schedule: Q04DX003 (ip), vehicle: saline with Tween-80
  T/C: 90 % of control
dose: 200.0 mg/kg/injection, schedule: Q04DX003 (ip), vehicle: saline with Tween-80
  T/C: 90 % of control

## CC(C)(C)C(=O)CC(=O)C(F)(F)C(F)(F)C(F)(F)F.[Ag]
[1]
  T/C: 119 % of control
dose: 12.5 mg/kg/injection, schedule: Q01DX009 (ip), vehicle: saline with Tween-80
  T/C: 119 % of control
dose: 25.0 mg/kg/injection, schedule: Q01DX009 (ip), vehicle: saline with Tween-80
  T/C: 114 % of control

## CCC/C=C(/C=N/Nc1ccc([N+](=O)[O-])cc1[N+](=O)[O-])CC
dose: 12.5 mg/kg/injection, schedule: Q01DX005 (ip), vehicle: saline with Tween-80
  T/C: 97 % of control
dose: 25.0 mg/kg/injection, schedule: Q01DX005 (ip), vehicle: saline with Tween-80
  T/C: 109 % of control
[7]
  T/C: 91 % of control and 95 % of control

## COC(=O)/C(=C/c1ccccc1)NC(C)=O
[8]
  T/C: 104 % of control
[9]
  T/C: 101 % of control
[10]
  T/C: 97 % of control

## CCC1=Nc2ccccc2C(c2ccccc2)NC1=O (configuration not stated)
[8]
  T/C: 97 % of control
[9]
  T/C: 100 % of control
[10]
  T/C: 94 % of control
